The target of experiment [1] is Parascaris sp. ACR-26/27 M-AChR (Parascaris equorum, UniProt A0A0U2ES47+A0A0U2ES58). Nature of the experiment: Two-electrode voltage-clamp on Parascaris sp. ACR-26/27 M-AChR expressed in Xenopus laevis oocytes. The experiment is classed as cell-based. How it is done:
(§1) Parascaris sp. ACR-26/27 M-AChR as well as Parascaris sp. and A. suum ACR-16 N-AChRs were expressed in Xenopus laevis oocytes as previously described. Briefly, Xenopus laevis defolliculated oocytes were obtained from Ecocyte Bioscience (Germany). Oocytes were micro-injected with 36 nL of cRNA mixes containing 50 ng/µL of each cRNA encoding subunits of interest and three H. contortus ancillary factors (Hco-RIC-3.1, Hco-UNC-50 and Hco-UNC-74). After 3–4 days of incubation, the oocytes were assayed under voltage clamp at −60 mV, and electrophysiological recordings were performed as described previously. The carvacrol concentration-dependent inhibition of acetylcholine current response was assessed for Parascaris- and Asu-ACR-16 channels with the protocol described by Zheng et al..
(§2) The results of the contraction assay are expressed as means ± S.E. in grams (g) of tension. […] GraphPad Prism® Software (San Diego, CA, USA) was used to estimate the constants EC50 and nH by non-linear regression for each preparation. We determined the mean contraction responses to each concentration of acetylcholine. Whole cell current electrophysiology responses were analyzed using the pCLAMP 10.4 package (Molecular Devices). […] One-way analysis of variance (ANOVA) was applied for the comparison of the differences between the EC50 value and the maximal effect (Rmax). Differences were considered significant when the p value was < 0.05. The statistical analysis was conducted using GraphPad Prism® software (San Diego, CA, USA), while all values are expressed as mean ± standard error (S.E.).

Experiment [2] concerns the target Parascaris sp. ACR-16 N-AChR (Parascaris equorum, UniProt A0A3S9VMQ8). Nature of the experiment: Two-electrode voltage-clamp on Parascaris sp. ACR-16 N-AChR expressed in Xenopus oocytes. Format: cell-based. To be noted: for reduction of ACh maximal response amplitude: p < 0.05. How it is done: as §1, §2
The subject of experiment [3] is Parascaris sp. muscle flap. In words: Parascaris sp. body muscle flap isometric contraction assay. As for the experimental part:
For the contraction assay, adult female Parascaris sp. worms were collected weekly from the slaughterhouse at Vrčin, Belgrade, Serbia. Worms were maintained in Locke’s solution, composition (mM): NaCl 155, KCl 5, CaCl2 2, NaHCO3 1.5 and glucose 5, at a temperature of 32 °C. The Locke’s solution was changed twice daily, and each batch of worms was used within 2 days of collection. Parascaris muscle flaps for the contractions were prepared by dissecting the anterior part of the worm, 3–4 cm caudal to the head (Figure 1b). Each flap (always the same length of 1 cm) was monitored isometrically by attaching a force transducer in an experimental bath maintained at 37 °C, containing 20 mL Ascaris Perienteric Fluid Ringer/APF Ringer (mM: NaCl, 23; Na-acetate, 110; KCl, 24; CaCl2, 6; MgCl2, 5; glucose, 11; HEPES, 5; pH 7.6) and bubbled with room air. After dissection, the preparations were allowed to equilibrate for 15 min under an initial tension of 1.5 g. […] Responses for each concentration were expressed in grams of tension (g), produced by each individual flap preparation. The effect of carvacrol (300 μM) on the acetylcholine dose–response plots was determined. Contractions were monitored on a PC using a BioSmart interface and eLAB software (ElUnit, Belgrade, Serbia). The system allows real-time recording, display and analysis of experimental data. Sigmoid dose–response curves for each individual flap preparation at each concentration of the antagonist were described by the Hill equation.
as §2

Another experiment concerns the target T1, A. suum ACR-16 N-AChR (Ascaris suum, UniProt F1KYJ9).
T1 construct: expressed in transfected cells; host or cells: Xenopus laevis oocytes (cRNA micro-injection)
T1 sequence (F1KYJ9 1-504): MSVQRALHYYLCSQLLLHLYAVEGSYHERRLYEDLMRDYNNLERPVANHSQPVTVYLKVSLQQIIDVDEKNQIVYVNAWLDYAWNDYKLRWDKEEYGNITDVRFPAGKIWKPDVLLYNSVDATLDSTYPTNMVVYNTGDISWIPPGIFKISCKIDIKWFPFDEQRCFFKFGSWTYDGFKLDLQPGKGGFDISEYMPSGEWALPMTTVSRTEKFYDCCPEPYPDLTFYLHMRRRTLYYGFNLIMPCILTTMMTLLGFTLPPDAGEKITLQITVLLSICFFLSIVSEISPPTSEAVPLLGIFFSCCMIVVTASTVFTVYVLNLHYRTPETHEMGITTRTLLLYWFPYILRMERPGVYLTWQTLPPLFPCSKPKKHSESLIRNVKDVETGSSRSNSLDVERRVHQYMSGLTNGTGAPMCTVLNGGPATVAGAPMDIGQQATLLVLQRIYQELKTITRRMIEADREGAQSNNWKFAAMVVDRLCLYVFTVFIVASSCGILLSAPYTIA
Nature of the experiment: cell-based. How it is done:
as §1, §2

Experiment [4] concerns A. suum innervated muscle strips. The conditions noted are these: 300 µM of carvacrol; cited from earlier work.

Entries after “also recorded” stand apart in the source; their conditions may differ. Read-outs that look alike come from different tables or passages of the source.

Here are results for 2 compounds from paper PMC8226574, “Action of Carvacrol on Parascaris sp. and Antagonistic Effect on Nicotinic Acetylcholine Receptors” (Pharmaceuticals, 2021).

Parascaris sp. ACR-26/27 M-AChR, sequence (A0A0U2ES58 entry or part of it): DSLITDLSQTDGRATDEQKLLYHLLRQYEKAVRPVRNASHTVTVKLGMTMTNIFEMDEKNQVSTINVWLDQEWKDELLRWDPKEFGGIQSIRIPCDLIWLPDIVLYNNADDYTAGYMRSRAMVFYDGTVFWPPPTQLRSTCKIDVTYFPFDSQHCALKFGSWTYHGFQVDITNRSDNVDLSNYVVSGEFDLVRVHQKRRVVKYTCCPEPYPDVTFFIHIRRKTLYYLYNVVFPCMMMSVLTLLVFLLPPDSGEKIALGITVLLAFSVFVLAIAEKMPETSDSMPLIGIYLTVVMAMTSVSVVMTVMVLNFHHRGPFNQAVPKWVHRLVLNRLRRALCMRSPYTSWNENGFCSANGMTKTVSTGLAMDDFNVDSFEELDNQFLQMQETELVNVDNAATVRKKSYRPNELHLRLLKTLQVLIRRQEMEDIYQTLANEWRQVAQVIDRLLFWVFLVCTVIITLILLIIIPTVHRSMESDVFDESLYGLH
Parascaris sp. ACR-26/27 M-AChR, sequence (A0A0U2ES47 entry or part of it): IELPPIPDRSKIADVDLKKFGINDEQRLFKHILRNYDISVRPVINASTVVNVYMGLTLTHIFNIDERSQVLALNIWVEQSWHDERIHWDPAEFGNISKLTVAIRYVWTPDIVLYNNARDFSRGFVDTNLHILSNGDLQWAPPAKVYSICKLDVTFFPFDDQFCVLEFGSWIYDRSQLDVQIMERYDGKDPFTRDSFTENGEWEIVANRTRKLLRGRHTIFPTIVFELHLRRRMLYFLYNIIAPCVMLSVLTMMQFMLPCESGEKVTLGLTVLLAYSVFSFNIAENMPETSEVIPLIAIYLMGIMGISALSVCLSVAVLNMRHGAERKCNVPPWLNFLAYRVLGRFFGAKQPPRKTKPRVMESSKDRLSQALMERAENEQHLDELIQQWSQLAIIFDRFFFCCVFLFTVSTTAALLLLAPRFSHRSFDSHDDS
Parascaris sp. ACR-16 N-AChR, sequence (A0A3S9VMQ8 entry or part of it): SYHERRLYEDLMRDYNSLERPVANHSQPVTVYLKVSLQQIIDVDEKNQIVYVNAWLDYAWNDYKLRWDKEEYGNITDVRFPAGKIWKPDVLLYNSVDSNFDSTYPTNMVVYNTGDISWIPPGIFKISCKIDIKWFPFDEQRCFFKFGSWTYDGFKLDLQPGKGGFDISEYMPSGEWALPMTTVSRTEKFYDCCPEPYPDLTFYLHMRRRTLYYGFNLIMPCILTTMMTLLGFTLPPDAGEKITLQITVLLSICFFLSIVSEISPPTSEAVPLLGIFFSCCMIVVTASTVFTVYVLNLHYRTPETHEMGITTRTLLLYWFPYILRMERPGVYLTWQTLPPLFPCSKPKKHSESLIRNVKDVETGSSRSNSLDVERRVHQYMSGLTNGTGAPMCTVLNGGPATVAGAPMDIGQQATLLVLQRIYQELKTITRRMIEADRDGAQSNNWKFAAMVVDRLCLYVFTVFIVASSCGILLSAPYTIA

Regarding `CC(=O)OCC[N+](C)(C)C` [ACh, Acetylcholine chloride], the EC50 in experiment [1] (ACh EC50, absence of carvacrol, normalized to 100 µM ACh, n = 6) was 25 µM; in experiment [1] (ACh EC50, continued perfusion of 100 µM carvacrol, n = 5), 12.2 µM; in experiment [1] (ACh EC50, continued perfusion of 300 µM carvacrol, n = 6) it was 6.6 µM; in experiment [1] (ACh log EC50, absence of carvacrol, log of EC50 in µM, n = 6) it was 25 µM; in experiment [1] (ACh log EC50, continued perfusion of 100 µM carvacrol, n = 5), 12.2 µM; in experiment [1] (ACh log EC50, continued perfusion of 300 µM carvacrol, n = 6), 6.56 µM. In addition, the EC50 was 5.9 µM in experiment [2] (ACh EC50, presence of 100 µM carvacrol, n = 6); 8.2 µM in experiment [2] (ACh EC50, presence of 300 µM carvacrol, n = 10); 6.5 µM in experiment [2] (ACh EC50, without carvacrol, n = 6); 5.92 µM in experiment [2] (ACh log EC50, presence of 100 µM carvacrol, n = 6); 8.18 µM in experiment [2] (ACh log EC50, presence of 300 µM carvacrol, n = 10); 6.08 µM in experiment [3] (read-out: EC50 of ACh, muscle flap contraction, control, no carvacrol, n = 5). For the same compound, the EC50 in experiment [3] (read-out: log EC50 of ACh, muscle flap contraction (converted)) is 6.03 µM. The “Hill coefficient of ACh concentration-response” value is 1.4 ± 0.1 in experiment [1] (absence of carvacrol); 1.7 ± 0.4 in experiment [1] (presence of 100 µM carvacrol); 1.5 ± 0.3 in experiment [1] (presence of 300 µM carvacrol); 2.0 ± 0.3 in experiment [2] (100 µM carvacrol); 2.1 ± 0.4 in experiment [2] (300 µM carvacrol); 2.0 ± 0.2 in experiment [2] (without carvacrol). The “ACh log EC50” value in experiment [2] (without carvacrol, log of EC50 in µM, n = 6) is recorded as 0.811 ± 0.028. For the same compound, in experiment [3] (obtained with 100 µM ACh), the “maximal effect (Rmax), contraction” value amounted to 1.19 ± 0.051 g.
With `Cc1ccc(C(C)C)cc1O` [carvacrol], the mode of action result (in experiment [1]; on A. suum ACR-16 N-AChR; in experiment [2]) was “non-competitive antagonist” throughout. Also, the agonist action entry in experiment [1] (carvacrol perfused alone) is reported as “no agonist action”. The “effect on efficacy of ACh activation (Imax)” value in experiment [1] (perfusion of 100 and 300 µM carvacrol, p < 0.0001) is “significantly reduced”. Further, the IC50 in experiment [1] (read-out: IC50, inhibition of ACh-elicited current) was 169.3 ± 1 µM; on A. suum ACR-16 N-AChR, 36.4 ± 1.3 µM; in experiment [2], 177.8 ± 1.1 µM. In addition, the “higher affinity for the A. suum N-AChR over the Parascaris sp. N-AChR” value at A. suum ACR-16 N-AChR (from concentration-inhibition data) is “approximately 5 fold”. The agonist effect entry in experiment [2] (300 µM carvacrol) is given as “no agonist effect”. Besides, the “reduction of ACh maximal response amplitude” value was found to be 2 fold in experiment [2] (presence of 100 µM carvacrol) and 3 fold in experiment [2] (presence of 300 µM carvacrol). For the same compound, the “inhibition of the ACh contractile effect” value in experiment [4] is not above 49%. Moreover, the “inhibitory effect after removal of carvacrol from experimental baths (washing)” value in experiment [3] (300 µM carvacrol) was “remained even after removal”. Besides, the “effect on contractions induced by ACh” value in experiment [3] (300 µM carvacrol, ACh 1 to 100 µM) was “completely abolished; also recorded: fully and irreversibly abolished; also recorded: full inhibition”.
